Series [1] in a line: Cytotoxicity: inhibition of growth of uninfected MDBK cells (TetraColor One MTT). The format is cell-based, bovine. The note with it: bovine. How it is done:
(§1) Also, after addition of the compound according to the present invention to medium containing cells not infected with any virus, the percent inhibition of cell growth of the compound according to the present invention is measured. For example, with the use of a reagent for viable cell measurement, such as a water soluble MTT solution TetraColor One™ (Seikagaku Corporation), the percent inhibition of cell growth can be measured.
(§2) At the same time, for measurement of toxicity of each compound, the compound was added to a microtiter plate containing MDBK cells not infected with the virus as described above, followed by 3 days of culture. After 3 days of culture, TetraColor One™ was added to a microtiter plate at 10 μl per well. After 1 hour of incubation at 37° C., the microtiter plate was applied to a microplate reader and then absorbance was measured at 450 nm/690 nm.
(§3) The percent inhibition (%) of cell growth was calculated by the following formula based on the thus obtained absorbance: […]

The test system of series [2] is Bovine viral diarrhea virus (BVDV) Nose strain. Description: Anti-BVDV activity: inhibition of viral replication in BVDV-infected MDBK cells (LDH in culture supernatant). It counts as cell-based. The conditions noted are these: for EC50: Bovine viral diarrhea virus isolates and strains, 72 h, read-out: EC50 (50% effective concentration, 50% inhibition of viral replication); for Selectivity index (CC50/EC50): CC50 in uninfected MDBK cells / EC50 against BVDV; for anti-BVDV effects (in words): summary statements on the tables. The source says: The antiviral activity of the compound according to the present invention can be evaluated by a method that involves infecting cells with a virus, adding the compound according to the present invention to medium before, after, or simultaneously with infection, and then measuring the percent inhibition of viral replication. Specifically, such percent inhibition of viral replication can be evaluated by measuring the activity of lactate dehydrogenase (LDH) in the culture supernatant of the virus-infected cells using an LDH cytotoxicity detection kit (Takara Biochemicals), for example. LDH is an enzyme that exists in the cytoplasm and is generally almost never released extracellularly because of the presence of cell membrane. Meanwhile, when cells are infected with a virus and then the virus replicated within the cells, infected cells die. As a result of viral infection, cell membrane is disrupted and then LDH is released into the culture supernatant. […] That is, the degree of cell disruption due to viral replication and the LDH level in the culture supernatant show extremely good positive correlation. Therefore, the antiviral activity (inhibition of viral replication) of the compound according to the present invention can be measured via quantitative determination of LDH in the culture supernatant.
Furthermore, the selectivity index (CC50/EC50) is calculated. The higher the selectivity index, the higher the effects of inhibiting viral replication alone without damaging cells. Therefore, the antiviral activity of the compound according to the present invention can be evaluated using the selectivity index as an index. Also, the antiviral activity of the compound according to the present invention can be evaluated by assay (e.g., Western blot analysis, ELISA, or flow cytometry) for measuring the viral antigen level in virus-infected cells cultured in medium containing the compound according to the present invention or assay (e.g., Northern blot analysis or quantitative RT-PCR) for measuring the virus gene (RNA) level in virus-infected cells.
1) Cell: Madin-Darby bovine kidney cell (hereinafter, referred to as “MDBK cell”);
2) Virus: Bovine viral diarrhea virus (hereinafter, referred to as “BVDV”) Nose strain;
MDBK cells (2×10^5 cells/ml) were infected with BVDV at an MOI of 0.01 (multiplicity of infection, MOI=0.01). Next, a solution containing BVDV-infected cells was dispensed into a 96-well flat bottom microtiter plate at 100 μl per well, simultaneously with the addition of a compound subjected to 5-fold serial dilution, followed by 3 days of culture at 37° C. (5% CO2).
After 3 days of culture, 50 μl of the cultured supernatant was collected and then transferred to another microtiter plate and then 50 μl of the reaction solution of an LDH cytotoxicity detection kit was added. After 30 minutes of culture at room temperature, the microtiter plate was applied to a microplate reader (BioRad Laboratories) and then absorbance was measured at 490 nm/690 nm.
The percent inhibition (%) of viral replication was calculated by the following formula based on the thus obtained absorbance:
100−[(ODT)V−(ODC)M]/[(ODC)V−(ODC)M]×100(%)

For series [3], the system named is Madin-Darby bovine kidney cell (MDBK cell). In words: Cytotoxicity: inhibition of growth of uninfected MDBK cells (TetraColor One MTT). The format is cell-based. How it is done: as §1, §2, §3
Setting [4] is: BVDV-infected MDBK cells, MOI 0.01, 3 days of culture, LDH readout, mean of at least two experiments.
Where [5] appears, read: read-out: CC50 (50% cytotoxicity concentration, 50% inhibition of cell growth), uninfected MDBK cells, 3 days of culture, MTT readout, mean of at least two experiments.

Read-outs that look alike come from different tables or passages of the source. Marks after values point to notes of the source that are not given here. Some results are limits rather than exact numbers.

In series [1], `Cc1nccc2c1c1ccccc1n2C` [Compound 10] returned a CC50 at 3 days of 5.2 µM. Moreover, the EC50 in series [2] (setting [4]) is 0.2 µM. For the same compound, the “Selectivity index (CC50/EC50)” value in series [2] is given as 26.0.

In turn, `NC(=O)c1ncn([C@@H]2O[C@H](CO)[C@@H](O)[C@H]2O)n1` [Ribavirin, 1-β-D-ribofuranousyl-1,2,4-triazole-3-carboxamide, reference compound] showed a CC50 at 3 days in series [1] of 15.1 µM. Also, the EC50 in series [2] (setting [4]) turned out to be 3.9 µM. In addition, the “anti-BVDV effects (in words)” value in series [2] is “selective anti-BVDV effects”.

As to `Cc1ccc2[nH]c3ccncc3c2c1` [Compound 8], in series [3] (bovine, 3 days), the CC50 came out at 12 µM. Further, the EC50 in series [2] (setting [4]) came out at 3 µM. Besides, in series [2], the “Selectivity index (CC50/EC50)” value is on record as 4.

In series [1], `Cc1ccc2c(c1)c1cnccc1n2C` [Compound 15] registered a CC50 at 3 days of 7.7 µM. In addition, the EC50 in series [2] (setting [4]) was determined as 0.35 µM. Besides, the “Selectivity index (CC50/EC50)” value in series [2] is on record as 22.0.

For the compound `Cc1cccc2[nH]c3ccncc3c12` [Compound 9], the CC50 in series [3] (bovine, 3 days) came out at 16 µM. Also, the EC50 in series [2] (setting [4]) was 1.2 µM. In series [2], the “Selectivity index (CC50/EC50)” value stood at 13.3.

In series [3] (bovine, 3 days), `Cc1cc2[nH]c3ccccc3c2cn1` [Compound 3] registered a CC50 of 70 µM. For the same compound, the EC50 in series [2] (setting [4]) amounted to 2.2 µM. For the same compound, in series [2], the “Selectivity index (CC50/EC50)” value came to 31.8.

Consider `Cc1ccc2c(c1)[nH]c1ccncc12` [Compound 7], for which the CC50 in series [3] (bovine, 3 days) amounted to 24 µM. The EC50 in series [2] (setting [4]) came out at 1.1 µM. Also, the “Selectivity index (CC50/EC50)” value in series [2] was 21.8.

`c1ccc2c(c1)[nH]c1ccncc12` [γ-Carboline] showed a CC50 at 3 days in series [1] of 41 µM. Moreover, the EC50 in series [2] (setting [4]) is 2.1 µM. In series [2], the “Selectivity index (CC50/EC50)” value turned out to be 19.5 and the “anti-BVDV effects (in words)” value is given as “selective anti-BVDV effects”.

`Cc1cccc2c1c1cnccc1n2C` [Compound 16] had a CC50 at 3 days in series [1] of 6.4 µM. For the same compound, the EC50 in series [2] (setting [4]) came to 0.29 µM. Besides, the “Selectivity index (CC50/EC50)” value in series [2] came to 22.1.

`c1ccc2c(c1)[nH]c1cccnc12` [δ-Carboline, reference compound] came in with a CC50 in series [3] (bovine, 3 days) of over 100 µM. For the same compound, the EC50 in series [2] (setting [4]) is over 100 µM. Further, the “anti-BVDV effects (in words)” value in series [2] is “lower than those of β-carboline and γ-carboline”.

For the compound `c1ccc2c(c1)[nH]c1ccccc12` [Carbazole, reference compound], the CC50 in series [3] (setting [5]) is over 100 µM. In addition, in series [2] (MDBK), the EC50 was over 100 µM.

In turn, `Cc1cc2c(cn1)c1ccccc1n2C` [Compound 11] gave a CC50 at 3 days in series [1] of 21 µM. In addition, the EC50 in series [2] (setting [4]) worked out at 0.062 µM. In addition, in series [2], the “Selectivity index (CC50/EC50)” value was 338.7; the “anti-BVDV effects (in words)” value is “activity equivalent to that of compound 12 and the highest selectivity”.

Turning to `Cn1ccc2nc3ccccc3c-2c1` [Compound 2], the CC50 in series [3] (bovine, 3 days) turned out to be 65 µM. In addition, in series [2] (setting [4]), the EC50 came to 4.3 µM. In addition, the “Selectivity index (CC50/EC50)” value in series [2] was found to be 15.1.

Consider `Cc1cccc2c1[nH]c1ccncc12` [Compound 6], for which the CC50 in series [3] (bovine, 3 days) stood at 24 µM. Moreover, the EC50 in series [2] (setting [4]) turned out to be 1.7 µM. Moreover, the “Selectivity index (CC50/EC50)” value in series [2] is listed as 14.1.

In the case of `c1ccc2c(c1)oc1ccccc12` [Dibenzofuran, reference compound], the CC50 in series [3] (setting [5]) is over 100 µM. The EC50 in series [2] (MDBK) is over 100 µM.

The compound `c1ccc2c(c1)[nH]c1cnccc12` [β-Carboline] registered a CC50 at 3 days in series [1] (uninfected MDBK cells, 3 days of culture, MTT readout, mean of at least two experiments) of 87 µM. Further, the EC50 in series [2] (MDBK) worked out at 8.5 µM. Moreover, in series [2], the “Selectivity index (CC50/EC50)” value amounted to 10.2 and the “anti-BVDV effects (in words)” value is reported as “selective anti-BVDV effects”.

With `Cc1cncc2c1[nH]c1ccccc12` [Compound 4], in series [3] (bovine, 3 days), the CC50 amounted to 21 µM. In addition, the EC50 in series [2] (setting [4]) came out at 0.55 µM. Also, the “Selectivity index (CC50/EC50)” value in series [2] is 38.2.

For `c1ccc2c(c1)Cc1ccccc1-2` [Fluorene, reference compound], in series [3] (bovine, 3 days), the CC50 was over 100 µM. Besides, the EC50 in series [2] (setting [4]) is over 100 µM.

Regarding Interferon-α, in series [2] (interferon-α, BVDV-infected MDBK cells, MOI 0.01, 3 days, LDH readout), the “EC50 (50% effective concentration, 50% inhibition of viral replication)” value is 5.5* IU/well.

As to `c1ccc2c(c1)[nH]c1ncccc12` [α-Carboline, reference compound], in series [3] (bovine, 3 days), the CC50 is over 100 µM. In series [2] (setting [4]), the EC50 came out at 91 µM. In series [2], the “Selectivity index (CC50/EC50)” value is over 1.1; the “anti-BVDV effects (in words)” value is “lower than those of β-carboline and γ-carboline”.

The compound `Cc1cncc2c3ccccc3n(C)c12` [Compound 12] gave a CC50 at 3 days in series [1] of 9.6 µM. Moreover, the EC50 in series [2] (setting [4]) was found to be 0.043 µM. In series [2], the “Selectivity index (CC50/EC50)” value was determined as 223.2; the “anti-BVDV effects (in words)” value is “strongest activity and high selectivity”.

Turning to `Cc1ccc2c3cnccc3n(C)c2c1` [Compound 14], the CC50 at 3 days in series [1] worked out at 40 µM. In addition, the EC50 in series [2] (setting [4]) was 0.3 µM. For the same compound, the “Selectivity index (CC50/EC50)” value in series [2] was 133.3.

The compound `Cc1cccc2c3cnccc3n(C)c12` [Compound 13] had a CC50 at 3 days in series [1] of 11 µM. Also, the EC50 in series [2] (setting [4]) came to 0.3 µM. In addition, the “Selectivity index (CC50/EC50)” value in series [2] was found to be 36.7.

For the compound `Cc1nccc2[nH]c3ccccc3c12` [Compound 1], in series [3] (bovine, 3 days), the CC50 came out at 9.7 µM. Further, the EC50 in series [2] (setting [4]) was 0.58 µM. Also, the “Selectivity index (CC50/EC50)” value in series [2] came to 16.7.

The compound `Cn1c2ccccc2c2cnccc21` [Compound 5] registered a CC50 in series [3] (bovine, 3 days) of 29 µM. In addition, in series [2] (setting [4]), the EC50 amounted to 0.26 µM. For the same compound, in series [2], the “Selectivity index (CC50/EC50)” value was found to be 111.5; the “anti-BVDV effects (in words)” value is “strongest activity and the highest selectivity”.

These data come from patent US20100256379A1, “ANTI-VIRAL AGENT CONTAINING HETEROCYCLIC AROMATIC COMPOUND AS ACTIVE INGREDIENT” (Kagoshima University, priority 2007, published 2010).
